# Measured values: PubChem BioAssay (NCI)
# “And” between values parts separate entries of the source, which are not always exact repeats. Identical values can stand only once.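 Cells were grown in 96-well plates and exposed to each compound for 48 hours at five concentrations; endpoints were interpolated linearly between bracketing concentrations, or set to the highest concentration if not reached. GI50 = concentration required for 50% inhibition of growth. TGI marks complete inhibition of growth.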
# What was measured:
# Experiment in all cases: NCI tumour cell line growth inhibition, 48 h
# CAKI-1 renal = system: CAKI-1 renal
# HOP-62 NSCLC = system: HOP-62 NSCLC
# MALME-3M melanoma = system: MALME-3M melanoma
# NCI-H226 lung = system: NCI-H226 lung
# SF-295 CNS = system: SF-295 CNS
# SK-MEL-28 melanoma = system: SK-MEL-28 melanoma
# SNB-78 CNS = system: SNB-78 CNS
# UACC-257 melanoma = system: UACC-257 melanoma
# UACC-62 melanoma = system: UACC-62 melanoma
# M19-MEL melanoma = system: M19-MEL melanoma
Compound,TGI (CAKI-1 renal),TGI (HOP-62 NSCLC),TGI (MALME-3M melanoma) [µM],TGI (NCI-H226 lung),TGI (SF-295 CNS),TGI (SK-MEL-28 melanoma) [µM],TGI (SNB-78 CNS) [µM],TGI (UACC-257 melanoma) [µM],TGI (UACC-62 melanoma),GI50 (CAKI-1 renal),GI50 (HOP-62 NSCLC),GI50 (MALME-3M melanoma) [µM],GI50 (NCI-H226 lung) [µM],GI50 (SF-295 CNS),GI50 (SK-MEL-28 melanoma),GI50 (UACC-257 melanoma),GI50 (UACC-62 melanoma) [µM],TGI (M19-MEL melanoma) [µM],GI50 (M19-MEL melanoma) [µM]
CCOC(=O)C1=C(NC(C)(C)C)OCC1=O,> 100 µM,> 100 µM,> 100,> 100 µM,> 100 µM,> 100,> 100,> 100,> 100 µM,,,,,,,,,,
CC(F)(F)c1cc(F)ccc1-c1sc2cc(O)ccc2c1Oc1ccc(/C=C/C(=O)O)cc1,20.2 µM,26.8 µM,44.4,25 µM,20.5 µM,18.9,,57.5,22.9 µM,6.26 µM,9.03 µM,11.6,5.78,5.23 µM,5.79 µM,14.2 µM,6.06,,
COc1ccc(NC(=O)c2sc3nc(C)c(C(O)c4ccc(OC)cc4)cc3c2N)cc1 (centres undefined),> 50 µM,> 50 µM,> 50,> 50 µM,9.79 µM,> 50,,> 50,> 50 µM,0.803 µM,2.03 µM,2.65,3.54,0.299 µM,6.22 µM,11.1 µM,0.621,,
COc1cccc(Cn2cc3c(c2)-c2oncc2CC3)c1,> 84.8 µM,> 100 µM,80.1,> 100 µM,1.04 µM,> 100,,> 79.7,> 88.8 µM,0.354 µM,0.528 µM,0.915,2.72,0.245 µM,0.746 µM,4.13 µM,0.662,,
O=C(NCCN1CCOCC1)Nc1ccc(-c2cc3c(Nc4ccc(Oc5cccc(C(F)(F)F)c5)c(Cl)c4)ncnc3s2)cc1,5.74 µM,5.93 µM,1.57,17.1 µM,2 µM,1.6,,1.84,2.27 µM,1.5 µM,1.46 µM,0.832,3.18,0.936 µM,0.809 µM,0.927 µM,1,,
CCOC(=O)CNC(=O)CCCn1c(=O)c2c3ccccc3n(C)c2n2nnc(-c3ccccc3)c12,20 µM,17.7 µM,> 50,> 50 µM,17.4 µM,> 50,,> 50,21.8 µM,8.37 µM,5.88 µM,> 50,25.1,4.83 µM,> 50 µM,> 50 µM,7.2,,
O=C1OC(c2ccccc2)=N/C1=C\c1c(O)cc(O)cc1O,> 100 µM,,> 100,,,> 100,> 100,> 100,> 100 µM,,,,,,,,,> 100,
O=C(O)C(Br)C(Br)c1ccccc1[N+](=O)[O-] (centres undefined),> 100 µM,> 100 µM,> 100,> 100 µM,> 100 µM,> 100,,> 100,> 100 µM,,,,,,,,,,
O=C(c1ccco1)c1c(C(F)(F)F)nc2cc(C(F)(F)F)ccc2[n+]1[O-],58.8 µM,> 100 µM,> 100,> 100 µM,40.4 µM,> 100,,> 100,> 100 µM,19.7 µM,22.9 µM,54.2,> 100,17.5 µM,> 100 µM,> 100 µM,> 100,,
O=C(NCCCNC(=O)OCc1ccc2c(Br)cc(Br)c(O)c2n1)OCc1ccc2c(Br)cc(Br)c(O)c2n1,> 100 µM,> 100 µM,> 100,> 100 µM,> 100 µM,> 100,,> 100,> 100 µM,> 100 µM,> 100 µM,> 100,> 100,> 100 µM,> 100 µM,> 100 µM,> 100,,
CC(C)CC(CNC(Cc1ccc(Cl)cc1)C(N)=O)NC(=O)C(Cc1cnc[nH]1)NC(=O)CNC(=O)C(NC(=O)C(C)NC(=O)C(Cc1c[nH]c2ccccc12)NC(=O)C(CCC(=O)O)NC(=O)C(N)Cc1ccccc1)C(C)C (centres undefined),> 133 µM,> 133 µM,,,> 133 µM,> 133,> 133,> 133,> 133 µM,,,,,,,,,> 133,
Cc1cccc2c1Oc1cc(Cl)ccc1C2NC(=O)CN(C)C (centres undefined),,> 100 µM,,> 100 µM,,72.7,> 100,89.5,70 µM,,,,,,,,,47.6,
CCOC(=O)N1C/C(=C/c2ccc(OC)cc2)C(=O)/C(=C/c2ccc(OC)cc2)C1,> 70.1 µM,5.11 µM,> 33.9,18.9 µM,5.81 µM,7.84,,11.4,5.4 µM,4.67 µM,2.1 µM,4.76,3.29,2.17 µM,2.72 µM,2.88 µM,1.92,,
O=C(CCCNC(=O)OCc1ccccc1)OCc1ccc2c(c1)C(=O)c1ccccc1C2=O,> 89.6 µM,> 93.4 µM,> 100,42.6 µM,83.9 µM,> 100,> 94.3,> 100,> 100 µM,,,,,,,,,,
CS(=O)c1ccc(-c2nc(-c3ccc(F)cc3)c(-c3ccncc3)[nH]2)cc1 (centres undefined),> 81.9 µM,> 100 µM,64.9,> 73.1 µM,> 71.6 µM,66.3,,41.6,> 66 µM,21.6 µM,> 100 µM,14.2,24.7,29.1 µM,17.1 µM,16.3 µM,9.09,,
O=C1NC(=O)C2(CCC(O)C2)c2cc[n+]([O-])cc21 (centres undefined),> 100 µM,> 100 µM,> 100,> 100 µM,> 100 µM,> 100,,> 100,> 100 µM,,,,,,,,,,
CC[C@@H](C)[C@H]([C@H](CC(=O)N1CCC[C@@H]1[C@@H](OC)[C@H](C)C(=O)N[C@H](Cc1ccccc1)c1nccs1)OC)N(C)C(=O)[C@H](NC(=O)[C@@H](C(C)C)N(C)C)C(C)C,,,,,,> 100,,,,0.000245 µM and 0.000425 µM,,0.000425,,,1.26 µM,0.000425 µM and < 0.0589 µM,0.000425,,0.000425

Compound,TGI (CAKI-1 renal),TGI (HOP-62 NSCLC),TGI (MALME-3M melanoma) [µM],TGI (NCI-H226 lung),TGI (SF-295 CNS),TGI (SK-MEL-28 melanoma) [µM],TGI (SNB-78 CNS) [µM],TGI (UACC-257 melanoma) [µM],TGI (UACC-62 melanoma),GI50 (CAKI-1 renal),GI50 (HOP-62 NSCLC),GI50 (MALME-3M melanoma) [µM],GI50 (NCI-H226 lung) [µM],GI50 (SF-295 CNS),GI50 (SK-MEL-28 melanoma),GI50 (UACC-257 melanoma),GI50 (UACC-62 melanoma) [µM],TGI (M19-MEL melanoma) [µM],GI50 (M19-MEL melanoma) [µM]
O=[N+]([O-])c1cc(Cl)cc2c1nc(NCCO)c1ccccc12,> 100 µM,> 100 µM,57.1,> 80.2 µM,> 100 µM,> 100,,54.8,> 60 µM,,,,,,,,,,
NC1=NC2(O)c3ccccc3C(=O)C2(O)N1 (centres undefined),> 100 µM,> 100 µM,> 100,> 100 µM,> 100 µM,> 100,> 100,> 100,> 100 µM,,,,,,,,,,
BrC(Br)(Br)c1cnc2ccccc2n1,4.41 µM,7.9 µM,5.28,8.38 µM,15.4 µM,4.24,,6.48,6.6 µM,1.52 µM,2.27 µM,1.55,3.91,3.75 µM,1.85 µM,2.02 µM,2.02,,
Oc1ccc(Br)cc1/C=N/NC(=S)NC12CC3CC(CC(C3)C1)C2,8.59 µM,3.32 µM,6.26,4.8 µM,7.89 µM,10.1,,6.96,7.83 µM,2.67 µM,1.52 µM,2.23,1.95,2.6 µM,2.66 µM,2.11 µM,2.37,,
CCCCN(CCCC)CC(C)(C)C(O)c1ccc(OC)c2ccccc12 (centres undefined),16 µM,20.6 µM,16.6,9.24 µM,17.8 µM,24.8,,23.8,21.3 µM,3.06 µM,6.5 µM,3.02,2.42,2.28 µM,11.3 µM,6.31 µM,4.87,,
O=C1C(Cl)=C(Nc2cccc(C(F)(F)F)c2)C(=O)N1Cc1ccccc1Cl,21.6 µM,25.4 µM,23.3,3.01 µM,24.9 µM,26.9,,29.7,13.7 µM,4.84 µM,12.6 µM,1.54,0.0858,2.39 µM,8.21 µM,13.7 µM,3.18,,
CCCC[P+](c1ccccc1)(c1ccccc1)c1ccccc1,> 100 µM,> 100 µM,> 100,> 100 µM,37.3 µM,> 100,,7.6,> 100 µM,> 100 µM,2.55 µM,4.29,5.34,5.29 µM,28.1 µM,0.61 µM,1.9,,
CCCCCC(=O)OCC(=O)O[C@@H]1C[C@]2(C(C)C)O[C@@]1(C)[C@@H]1CC[C@@H](C)[C@H]1[C@@H]2OC(=O)/C=C/c1ccccc1,0.221 µM,> 100 µM,> 57,> 100 µM,> 100 µM,> 83,,> 89.2,> 100 µM,0.0329 µM,> 74.6 µM,> 35.4,50.6,> 68.2 µM,> 56.6 µM,> 55.7 µM,> 53.8,,
O=C(Nc1cccc2cccnc12)c1ccc(N2C(=O)[C@@H]3[C@H](C2=O)[C@@H]2C=C[C@H]3C2)cc1,> 100 µM,> 100 µM,> 100,> 88.6 µM,> 86.9 µM,> 100,,> 100,> 86.3 µM,21 µM,36.7 µM,21.5,19.8,24.9 µM,35.2 µM,30.5 µM,22.4,,
COc1cccc2c1cc([N+](=O)[O-])c1c(C(=O)O)cc3c(c12)OCO3,> 100 µM,97.8 µM and > 76.6 µM,> 100,48.4 µM and > 78.3 µM,> 100 µM,> 100,,> 100,> 100 µM,17.8 µM,28.4 µM,31.1,20,17.4 µM,46.7 µM,28.7 µM,,,
O=C(N=Nc1c(O)[nH]c2c(Cl)cc(Cl)cc12)c1ccncc1,39 µM,88.3 µM,32.7,> 100 µM,> 100 µM,50.5,,48.9,33 µM,,,,,,,,,,
COc1ccc2c(c1OC)-c1c(c3ccc([N+](=O)[O-])cc3c(=O)n1CCCN=[N+]=[N-])C2=O,9.73 µM,92.8 µM,> 100,99.3 µM,28.4 µM,> 100,,> 100,> 100 µM,2.55 µM,5.02 µM,> 100,22.8,3.11 µM,> 100 µM,17.2 µM,4.59,,
COc1ccc2[nH]c(-c3cccc(N(C)C)c3)cc(=O)c2c1,> 100 µM,94.2 µM,> 100,,,> 100,,> 100,> 100 µM,0.418 µM,0.335 µM and 0.844 µM,,0.581,3.71 µM,0.795 µM,0.361 µM,0.483,,
O=C1C=CN(C2OC(CO)C(O)C2O)C(=O)C1 (centres undefined),296 µM and 1010 µM,625 µM and 1340 µM,,> 2500 µM,625 µM and > 2060 µM,> 2500,,> 1940,625 µM and > 1840 µM,17.3 µM,18.7 µM,,> 625,116 µM and 59.1 µM,> 625 µM and 252 µM,,33.3,1370,
O=C(O)c1ccc(-c2ccc(C(=O)O)cc2I)c(I)c1,> 100 µM,> 100 µM,> 100,> 100 µM,> 100 µM,> 100,,> 100,> 100 µM,> 100 µM,> 100 µM,> 100,> 100,> 100 µM,> 100 µM,> 100 µM,> 100,,
Oc1ccc(/C=N/Nc2nc3ccccc3s2)c(O)c1,15.7 µM,> 100 µM,7.26,65.9 µM,35.4 µM,> 100,,14.2,4.82 µM,1.07 µM,3.43 µM,1.43,3.56,2.86 µM,2.99 µM,2.79 µM,1.75,,
